Experimental data: PubChem BioAssay AID2060901 (Molecular Pharmacology Branch, DTP, NCI, 2025)
Values joined by “and” are separate entries in the source; they are usually repeats but may differ in a detail not shown here. Equal values may be shown once.

Tested on: 422866-222-R5-J1-PDC complex spheroids viability
Test: Anticancer human tumor 422866-222-R5-J1-PDC patient-derived pancreatic adenocarcinoma cell line growth inhibition [RAS]
Details: for viability, T/C: stronger effect = lower value
Method in brief: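 Agents were tested in combination matrices in half-log decrements from a top concentration at or near clinical Cmax (10 microM if undetermined). Targets were multi-cell spheroids of tumour lines plus HUVEC and MSC stromal cells.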

[1] = curve of first compound, second compound 0.000949 µM
[2] = curve of first compound, second compound 0.003 µM
[3] = curve of first compound, second compound 0.00949 µM
[4] = curve of first compound, second compound 0.03 µM
[5] = curve of first compound, second compound 0.0949 µM
[6] = curve of first compound, second compound 0.3 µM
[7] = second compound 0.000949 µM, first compound 0.00316 µM
[8] = second compound 0.000949 µM, first compound 0.01 µM
[9] = second compound 0.000949 µM, first compound 0.0316 µM
[10] = second compound 0.000949 µM, first compound 0.1 µM
[11] = second compound 0.000949 µM, first compound 0.316 µM
[12] = second compound 0.000949 µM, first compound 1 µM
[13] = second compound 0.003 µM, first compound 0.00316 µM
[14] = second compound 0.003 µM, first compound 0.01 µM
[15] = second compound 0.003 µM, first compound 0.0316 µM
[16] = second compound 0.003 µM, first compound 0.1 µM
[17] = second compound 0.003 µM, first compound 0.316 µM
[18] = second compound 0.003 µM, first compound 1 µM
[19] = second compound 0.00949 µM, first compound 0.00316 µM
[20] = second compound 0.00949 µM, first compound 0.01 µM
[21] = second compound 0.00949 µM, first compound 0.0316 µM
[22] = second compound 0.00949 µM, first compound 0.1 µM
[23] = second compound 0.00949 µM, first compound 0.316 µM
[24] = second compound 0.00949 µM, first compound 1 µM
[25] = second compound 0.03 µM, first compound 0.00316 µM
[26] = second compound 0.03 µM, first compound 0.01 µM
[27] = second compound 0.03 µM, first compound 0.0316 µM
[28] = second compound 0.03 µM, first compound 0.1 µM
[29] = second compound 0.03 µM, first compound 0.316 µM
[30] = second compound 0.03 µM, first compound 1 µM
[31] = second compound 0.0949 µM, first compound 0.00316 µM
[32] = second compound 0.0949 µM, first compound 0.01 µM
[33] = second compound 0.0949 µM, first compound 0.0316 µM
[34] = second compound 0.0949 µM, first compound 0.1 µM
[35] = second compound 0.0949 µM, first compound 0.316 µM
[36] = second compound 0.0949 µM, first compound 1 µM
[37] = second compound 0.3 µM, first compound 0.00316 µM
[38] = second compound 0.3 µM, first compound 0.01 µM
[39] = second compound 0.3 µM, first compound 0.0316 µM
[40] = second compound 0.3 µM, first compound 0.1 µM
[41] = second compound 0.3 µM, first compound 0.316 µM
[42] = second compound 0.3 µM, first compound 1 µM
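Also: spheroids exposed to compounds for 7 days.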
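For viability, T/C in this document: 100% = DMSO vehicle control viability.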

In the case of `C=CC(=O)Nc1cc(Nc2nccc(-c3cn(C)c4ccccc34)n2)c(OC)cc1N(C)CCN(C)C` + CCn1c(-c2cc(N3CCN(C)CC3)cnc2C(C)OC)c2c3cc(ccc31)-c1csc(n1)CC(NC(=O)C1CC1C)C(=O)N1CCCC(N1)C(=O)OCC(C)(C)C2, the IC50 [1] is reported as under 3.16 nM, the IC50 [2] is reported as under 3.16 nM and the IC50 [3] is reported as under 3.16 nM. It also gave an IC50 [4] of under 3.16 nM, an IC50 [5] of under 3.16 nM and an IC50 [6] of under 3.16 nM. It also gave a viability, T/C [7] of 32.2%, a viability, T/C [8] of 25.2% and a viability, T/C [9] of 26.4%. For the same compound, the viability, T/C [10] was 21.6%, the viability, T/C [11] was 23.1% and the viability, T/C [12] was 24.7%. It also gave a viability, T/C [13] of 26.1%, a viability, T/C [14] of 20.3% and a viability, T/C [15] of 20.2%. It also gave a viability, T/C [16] of 17.2%, a viability, T/C [17] of 16.4% and a viability, T/C [18] of 18.9%. The viability, T/C [19] was 20.4%, the viability, T/C [20] was 17.9% and the viability, T/C [21] was 17%. For the same compound, the viability, T/C [22] was 14.1%, the viability, T/C [23] was 14.5% and the viability, T/C [24] was 17.1%. For the same compound, the viability, T/C [25] was 19.9%, the viability, T/C [26] was 18.6% and the viability, T/C [27] was 16.8%. For the same compound, the viability, T/C [28] was 14.4%, the viability, T/C [29] was 15.1% and the viability, T/C [30] was 15.6%. The viability, T/C [31] was 20%, the viability, T/C [32] was 17.4% and the viability, T/C [33] was 19.2%. It also gave a viability, T/C [34] of 16.9%, a viability, T/C [35] of 16.1% and a viability, T/C [36] of 18.7%. The viability, T/C [37] was 19.3%, the viability, T/C [38] was 20.9% and the viability, T/C [39] was 19.1%. It also gave a viability, T/C [40] of 16.5%, a viability, T/C [41] of 16.5% and a viability, T/C [42] of 20.8%.

`O=C(c1ccc(F)c(F)c1Nc1ccc(I)cc1F)N1CC(O)([C@@H]2CCCCN2)C1` + C=CC(=O)N1CCN(c2nc(OCC3CCCN3C)nc3c(F)c(-c4nc(N)cc(C)c4C(F)(F)F)c(Cl)cc23)C(C)C1 gave an IC50 (curve of first compound, second compound 0.00316 µM) of under 3.16 nM, an IC50 (curve of first compound, second compound 0.01 µM) of under 3.16 nM and an IC50 (curve of first compound, second compound 0.0316 µM) of under 3.16 nM. It also gave an IC50 (curve of first compound, second compound 0.1 µM) of under 3.16 nM, an IC50 (curve of first compound, second compound 0.316 µM) of under 3.16 nM and an IC50 (curve of first compound, second compound 1 µM) of under 3.16 nM. For the same compound, the viability, T/C (second compound 0.00316 µM, first compound 0.00316 µM) was 27.3%, the viability, T/C (second compound 0.00316 µM, first compound 0.01 µM) was 29% and the viability, T/C (second compound 0.00316 µM, first compound 0.0316 µM) was 20.7%. For the same compound, the viability, T/C (second compound 0.00316 µM, first compound 0.1 µM) was 18.1%, the viability, T/C (second compound 0.00316 µM, first compound 0.316 µM) was 16.6% and the viability, T/C (second compound 0.00316 µM, first compound 1 µM) was 17.1%. For the same compound, the viability, T/C (second compound 0.01 µM, first compound 0.00316 µM) was 39.6%, the viability, T/C (second compound 0.01 µM, first compound 0.01 µM) was 22.1% and the viability, T/C (second compound 0.01 µM, first compound 0.0316 µM) was 21.8%. It also gave a viability, T/C (second compound 0.01 µM, first compound 0.1 µM) of 15.2%, a viability, T/C (second compound 0.01 µM, first compound 0.316 µM) of 17% and a viability, T/C (second compound 0.01 µM, first compound 1 µM) of 12.9%. For the same compound, the viability, T/C (second compound 0.0316 µM, first compound 0.00316 µM) was 28.7%, the viability, T/C (second compound 0.0316 µM, first compound 0.01 µM) was 24.2% and the viability, T/C (second compound 0.0316 µM, first compound 0.0316 µM) was 18.3%. The viability, T/C (second compound 0.0316 µM, first compound 0.1 µM) was 14.5%, the viability, T/C (second compound 0.0316 µM, first compound 0.316 µM) was 17.8% and the viability, T/C (second compound 0.0316 µM, first compound 1 µM) was 14.6%. For the same compound, the viability, T/C (second compound 0.1 µM, first compound 0.00316 µM) was 22.3%, the viability, T/C (second compound 0.1 µM, first compound 0.01 µM) was 18.9% and the viability, T/C (second compound 0.1 µM, first compound 0.0316 µM) was 17.4%. The viability, T/C (second compound 0.1 µM, first compound 0.1 µM) was 13.8%, the viability, T/C (second compound 0.1 µM, first compound 0.316 µM) was 14.9% and the viability, T/C (second compound 0.1 µM, first compound 1 µM) was 14.3%. It also gave a viability, T/C (second compound 0.316 µM, first compound 0.00316 µM) of 18%, a viability, T/C (second compound 0.316 µM, first compound 0.01 µM) of 18.2% and a viability, T/C (second compound 0.316 µM, first compound 0.0316 µM) of 20.1%. It also gave a viability, T/C (second compound 0.316 µM, first compound 0.1 µM) of 12.6%, a viability, T/C (second compound 0.316 µM, first compound 0.316 µM) of 16.4% and a viability, T/C (second compound 0.316 µM, first compound 1 µM) of 14.1%. It also gave a viability, T/C (second compound 1 µM, first compound 0.00316 µM) of 19.7%, a viability, T/C (second compound 1 µM, first compound 0.01 µM) of 17.7% and a viability, T/C (second compound 1 µM, first compound 0.0316 µM) of 18.5%. For the same compound, the viability, T/C (second compound 1 µM, first compound 0.1 µM) was 15%, the viability, T/C (second compound 1 µM, first compound 0.316 µM) was 14.8% and the viability, T/C (second compound 1 µM, first compound 1 µM) was 16.1%.

In the case of `O=C(c1ccc(F)c(F)c1Nc1ccc(I)cc1F)N1CC(O)([C@@H]2CCCCN2)C1` + CCn1c(-c2cccnc2C(C)OC)c2c3cc(ccc31)N1CCOC(CC(NC(=O)C(C(C)C)N(C)C(=O)C3(F)CCN(C(=O)C#CC(C)(C)N(C)C)CC3)C(=O)N3CCCC(N3)C(=O)OCC(C)(C)C2)C1, the IC50 [1] is reported as under 3.16 nM, the IC50 [2] is reported as under 3.16 nM and the IC50 [3] is reported as under 3.16 nM. It also gave an IC50 [4] of under 3.16 nM, an IC50 [5] of under 3.16 nM and an IC50 [6] of under 3.16 nM. For the same compound, the viability, T/C [7] was 27.1%, the viability, T/C [8] was 26.5% and the viability, T/C [9] was 21.4%. For the same compound, the viability, T/C [10] was 16.9%, the viability, T/C [11] was 14.8% and the viability, T/C [12] was 14%. For the same compound, the viability, T/C [13] was 23.4%, the viability, T/C [14] was 17.8% and the viability, T/C [15] was 16.9%. For the same compound, the viability, T/C [16] was 12.3%, the viability, T/C [17] was 10.9% and the viability, T/C [18] was 11.7%. It also gave a viability, T/C [19] of 26.2%, a viability, T/C [20] of 19.9% and a viability, T/C [21] of 16.2%. For the same compound, the viability, T/C [22] was 14.1%, the viability, T/C [23] was 11.1% and the viability, T/C [24] was 9.8%. It also gave a viability, T/C [25] of 19.6%, a viability, T/C [26] of 15.5% and a viability, T/C [27] of 14.3%. The viability, T/C [28] was 11.5%, the viability, T/C [29] was 11.7% and the viability, T/C [30] was 9.56%. The viability, T/C [31] was 16.5%, the viability, T/C [32] was 13.1% and the viability, T/C [33] was 13%. It also gave a viability, T/C [34] of 9.14%, a viability, T/C [35] of 11.8% and a viability, T/C [36] of 10.4%. For the same compound, the viability, T/C [37] was 15.7%, the viability, T/C [38] was 13.3% and the viability, T/C [39] was 10.9%. It also gave a viability, T/C [40] of 9.97%, a viability, T/C [41] of 12.4% and a viability, T/C [42] of 12.1%.

For `O=C(c1ccc(F)c(F)c1Nc1ccc(I)cc1F)N1CC(O)([C@@H]2CCCCN2)C1`, the viability, T/C (compound 0.00316 µM) was 98.2% [middle of 4 runs], the viability, T/C (compound 0.01 µM) was 74.8% [middle of 4 runs] and the viability, T/C (compound 0.0316 µM) was 60.7% [middle of 4 runs]. The viability, T/C (compound 0.1 µM) was 57% [middle of 4 runs], the viability, T/C (compound 0.316 µM) was 45.2% [middle of 4 runs] and the viability, T/C (compound 1 µM) was 39.2% [middle of 4 runs].

For `CC(Nc1ccc2c(c1)OCCn1cc(N3C(=O)OCC3C(F)F)nc1-2)C(N)=O` (centres undefined), the viability, T/C (compound 0.0316 µM) was 75.3% [middle of 4 runs], the viability, T/C (compound 0.1 µM) was 53.4% [middle of 4 runs] and the viability, T/C (compound 0.316 µM) was 42.6% [middle of 4 runs]. The viability, T/C (compound 1 µM) was 39.3% [middle of 4 runs] and the viability, T/C (compound 10 µM) was 26.1% and 23.8% and 27% (2×).

`CCn1c(-c2cc(N3CCN(C)CC3)cnc2C(C)OC)c2c3cc(ccc31)-c1csc(n1)CC(NC(=O)C1CC1C)C(=O)N1CCCC(N1)C(=O)OCC(C)(C)C2` (centres undefined) was tested, and the viability, T/C (compound 0.000949 µM) was 29.7% [middle of 8 runs], the viability, T/C (compound 0.003 µM) was 22.6% [middle of 8 runs] and the viability, T/C (compound 0.00949 µM) was 19.6% [middle of 8 runs]. The viability, T/C (compound 0.03 µM) was 20.2% [middle of 8 runs], the viability, T/C (compound 0.0949 µM) was 23% [middle of 8 runs] and the viability, T/C (compound 0.3 µM) was 21.7% [middle of 8 runs]. For the same compound, the IC50 (compound alone, run of 05/20/2024) was under 0.949 nM.
